Data as given in US20170184612A1, “USE OF LEUKOCYTES AND NOVEL BIOMARKERS IN THE DIAGNOSIS, CONFIRMATION, AND TREATMENT OF A NEUROLOGICAL DISORDER” (The Trustees of Columbia University in the City of New York, priority 2014, published 2017).

Assays:
[1] = test system: peripheral blood mononuclear cells (PBMC), T cells; experiment: ELISpot assay, gamma-interferon release (SFC) after stimulation with a-synuclein epitope pools; type: cell-based, human; conditions: for Pool +: IFNg, Pool Stimulated, number of donors with a positive response, Donors tested 1
Description: (§1) Blood from age matched controls and PD patients were obtained and mononuclear cells were isolated by gradient centrifugation.
(§2) Release of the cytokines gamma-interferon, which measures activation of CD4+ and/or CD8+ T cells, and the interleukin, IL-5, which measures activation of CD4+ T cells was measured by ELISpot assay. […] After 22 hours of stimulation at 37 C, the cells were removed and release of cytokines was measured by colorimetric detection of spot-forming cells (SFC). Confirmed release of cytokine is determined by the presence of a minimum of 20 SFC per million cells.
(§3) The binding algorithms in SubAim 1 predict how well the peptides would bind to MHC if present, but not if they are present in patients. To determine this, the presence of T cell response against the candidate antigens by patient blood-derived peripheral blood mononuclear cells (PBMC) is assessed by ELISPOT assays upon stimulation with the peptides. This assay detects and quantifies cytokine release (in this case, IFNγ and IL-5) from specific activated T cells.
(§4) Data were obtained from blood samples (25 ml) from 44 PD patients and 24 age-matched controls. The experiments were conducted blindly. PBMCs from these samples were isolated and exposed to pools comprising the 122 candidate class I and class II antigens and phosphorylated S129 epitopes generated in Subaim 1. For the PBMCs responsive to the pooled peptides, the response was then deconvoluted to identify individual epitopes.
(§5) PMBC fractions are recovered by standard methods with Ficoll gradient and T cells expansion (Oseroff et al., 2010). The methods for the analysis of T cell reactions and measurement of cytokines production using the enzyme-linked immunosorbent spot (ELISPOT) assay are published in analogous experiments to discover antigens in multiple sclerosis (Lolli et al., 2013) and in hay fever allergens (Oseroff et al., 2010). T cell responses are determined by measuring IFNγ and IL-5 release by ELISPOT. Statistical analysis of differences between populations is expected to be non-parametric and analyzed with the U-Mann-Whitney test. If there were a normal distribution of response, which is a priori unlikely as some patients have no T cell response, with an SD=1, 8 patients per group would be required to provide a p>90% that the study detect a >2 fold difference at a two-sided 0.05 significance level.

[2] = test system: peripheral blood mononuclear cells (PBMC), T cells; experiment: ELISpot assay, IL-5 release (SFC) after stimulation with a-synuclein epitope pools; type: cell-based, human
Description: as §1, §2, §3, §4, §5

[3] = Patients Summary, PD patients, of donors tested (peptide)
[4] = Patients Summary, PD patients, single peptide
[5] = number of donors positive to the single peptide, second 'Pool Stimulated' section (from r296), 12 donors tested
[6] = peptide + / donors tested (peptide), second 'Pool Stimulated' section (from r296), 12 donors tested
[7] = single peptide, second 'Pool Stimulated' section (from r296), 12 donors tested
[8] = Patients Summary, Phospho pool peptides
[9] = Patients Summary, Phospho pool peptides, 10 donors tested
[10] = peptides of pool 'Poshpho', 8 donors tested
[11] = peptides of pool 'Poshpho', 8 donors tested, number of donors positive

Substance	Pool + [1]	IFNg Peptide + (donors positive to the peptide) [1, 3]	IFNg Response Frequency [1, 4]	IFNg Total SFC [1, 4]	IFNg Peptide + [1, 5]	IFNg Response Frequency [1, 6]	IFNg Total SFC [1, 7]	IL-g Peptide + (donors positive to the peptide) [2, 3]	IL-g Response Frequency [2, 4]	IL-g Total SFC [2, 4]	IL-g Peptide + [2, 5]	IL-g Response Frequency [2, 6]	IL-g Total SFC [2, 7]	IFNg Avg SFC [1, 4]	IL-g Avg SFC [2, 4]	further results
3521.0073 (TTVAEKTKEQVTNVG; listed as Homo sapiens)	1	0	0%	0 SFC	0	0%	0 SFC	0	0%	0 SFC	0	0%	0 SFC	–	–	–
3521.0003 (SIAAATGFV; listed as Homo sapiens)	0	0	0%	0 SFC	1	50%	33.3 SFC	0	0%	0 SFC	0	0%	0 SFC	–	–	IFNg Avg SFC [1, 7]: 33.3 SFC
3521.0033 (VLYVGSKTKK; listed as Homo sapiens)	1	5	83%	1626 SFC	–	–	–	3	50%	528 SFC	–	–	–	325 SFC	176 SFC	–
3521.005 (APGKTKEGVL; listed as Homo sapiens)	0	1	13%	44 SFC	0	0%	0 SFC	2	25%	137 SFC	0	0%	0 SFC	44 SFC	67.5 SFC	–
3521.0062 (KTKKGVVHG; listed as Homo sapiens)	0	1	17%	113 SFC	–	–	–	1	17%	40 SFC	–	–	–	113 SFC	40 SFC	–
3521.0049 (APQEGILEDM; listed as Homo sapiens)	0	0	0%	0 SFC	0	0%	0 SFC	0	0%	0 SFC	0	0%	0 SFC	–	–	–
3521.0009 (LYVGSKTKK; listed as Homo sapiens)	0	2	33%	326 SFC	–	–	–	1	17%	559 SFC	–	–	–	163 SFC	559 SFC	–
3521.0078 (YVGSKTKKGVVHGVA; listed as Homo sapiens)	0	1	17%	474 SFC	–	–	–	1	17%	93 SFC	–	–	–	474 SFC	93 SFC	–
3521.0061 (AATGFVKKDQ; listed as Homo sapiens)	0	0	0%	0 SFC	1	50%	84 SFC	0	0%	0 SFC	1	50%	195 SFC	–	–	IFNg Avg SFC [1, 7]: 84 SFC; IL-g Avg SFC [2, 7]: 195 SFC
3521.0064 (GVVHGVATV; listed as Homo sapiens)	1	0	0%	0 SFC	0	0%	0 SFC	0	0%	0 SFC	1	50%	75 SFC	–	–	IL-g Avg SFC [2, 7]: 75 SFC
3521.0072 (EGVVHGVTTVAEKTK; listed as Homo sapiens)	1	0	0%	0 SFC	1	50%	93.3 SFC	0	0%	0 SFC	0	0%	0 SFC	–	–	IFNg Avg SFC [1, 7]: 93.3 SFC
3521.0069 (GVAEAAGKTK; listed as Homo sapiens)	0	1	13%	53 SFC	0	0%	0 SFC	0	0%	0 SFC	0	0%	0 SFC	53 SFC	–	–
3521.0026 (MPSEEGYQD; listed as Homo sapiens)	0	0	0%	0 SFC	0	0%	–	0	0%	0 SFC	1	50%	66 SFC	–	–	Pool + ([1]; pool 'Phospho' (phosphorylated peptides)): 1; IFNg Avg SFC [1, 8]: 407 SFC; IFNg Response Frequency [1, 8]: 40%; IFNg Total SFC [1, 8]: 1627 SFC; IFNg Peptide + (donors positive to the peptide) [1, 9]: 4; IFNg Avg SFC [1, 10]: 27 SFC; IFNg Response Frequency [1, 10]: 13%; IFNg Total SFC [1, 10]: 27 SFC; IFNg Peptide + [1, 11]: 1; IL-g Avg SFC [2, 8]: 773 SFC; IL-g Response Frequency [2, 8]: 10%; IL-g Total SFC [2, 8]: 773 SFC; IL-g Peptide + (donors positive to the peptide) [2, 9]: 1; IL-g Avg SFC [2, 10]: 93 SFC; IL-g Response Frequency [2, 10]: 13%; IL-g Total SFC [2, 10]: 93 SFC; IL-g Peptide + [2, 11]: 1; IL-g Avg SFC [2, 7]: 66 SFC
3521.0085 (EGVVHGVATVAEKTK; listed as Homo sapiens)	1	0	0%	0 SFC	0	0%	0 SFC	0	0%	0 SFC	1	50%	80 SFC	–	–	IL-g Avg SFC [2, 7]: 80 SFC
352100.45 (KTKKGVVHGV; listed as Homo sapiens)	0	–	–	–	–	–	–	–	–	–	–	–	–	–	–	–
